Our source for the EC50 values is ChEMBL document CHEMBL1150728, “Antimalarial agents, 4. Synthesis of a brusatol analog and biological activity of brusatol-related compounds” (1987).

Structures are written as SMILES. In brackets after ≈: the same amount, converted by molar mass.

For this experiment, the system named is Plasmodium falciparum. Description: Antimicrobial activity against chloroquine-resistant Plasmodium falciparum Smith. Format: functional. As to conditions: read-out: ED50 (the source's name).
`COC(=O)[C@@]12OC[C@]34[C@H]([C@@H](O)[C@@H]1O)[C@@]1(C)C=C(O[C@@H]5O[C@H](CO)[C@@H](O)[C@H](O)[C@H]5O)C(=O)[C@@H](C)[C@@H]1C[C@H]3OC(=O)[C@H](OC(=O)C=C(C)C)[C@@H]24` [BRUCEOSIDE A]: the EC50 was determined as 0.581 µg/mL (≈ 0.851 µM). Regarding `CCCCCC/C=C/C(=O)O[C@H]1C(=O)O[C@@H]2C[C@H]3C(C)=C(O)C(=O)C[C@]3(C)[C@H]3[C@@H](O)[C@H](O)[C@@]4(C(=O)OC)OC[C@]32[C@@H]14`, the EC50 was determined as 0.0617 µg/mL (≈ 0.107 µM). Regarding `COC(=O)[C@@]12OC[C@]34[C@H]([C@@H](O)[C@@H]1O)[C@@]1(C)CC(=O)C(O)=C(C)[C@@H]1C[C@H]3OC(=O)[C@H](O)[C@@H]24` [BRUCEOLIDE], the EC50 turned out to be 0.0752 µg/mL (≈ 0.172 µM). As for `COC(=O)[C@]12OC[C@]34[C@H]([C@@H](O)[C@@H]1O)[C@@]1(C)CC(=O)C(O)=C(C)[C@@H]1C[C@H]3OC(=O)[C@H](OC(=O)C=C(C)C)[C@@H]24` [BRUSATOL], the EC50 turned out to be 0.00758 µg/mL (≈ 0.0146 µM).
